Source: patent US20150259371A1, “METHODS AND COMPOUNDS FOR INHIBITING GLYCOSYLTRANSFERASES” (SIMON FRASER UNIVERSITY, priority 2010, published 2015)

What was measured:
[1] = test system: O-GlcNAc levels in COS-7 cells; assay: Western blot of O-GlcNAc levels (CTD110.6) in treated COS-7 cells; type: cell-based, African green monkey; conditions: for effect on O-GlcNAc levels at single dose / extent of decrease of O-GlcNAc levels relative to parent compound 9: 50 μM
Procedure: Cell culture: Cells were grown in an incubator at 37° C. and 5% CO2 atmosphere. Media and serum were purchased from Invitrogen. COS-7 cells were cultured in Dulbecco's modified Eagle's medium (DMEM) with 5% fetal bovine serum (FBS), and were typically 80-100% confluent prior to experimentation. HepG2, SK-N-SH, and EMEG32^−/− cells were cultured in Dulbecco's modified Eagle's medium (DMEM) with 5% fetal bovine serum (FBS), CHO cells in DMEMF-12 with 5% FBS and PC12 cells in DMEM with 5% FBS and 5% horse serum. Prior to experimentation, PC12 cells were plated at a density of 3-4×10^5 cells10 cm plate, which had been pre-treated with 5 μgcm^2 rat tail collagen (BD Biosciences). Cells were differentiated in DMEM containing 1% horse serum, in the presence of 2.5S mouse nerve growth factor (Chemicon) at a final concentration of 25 ng mL^−1, for 4-5 days prior to treatment. Other cell lines were 80-100% confluent prior to treatment. Following treatment with (Ac-)5SGlcNAc, using various conditions, cells were washed gently with PBS, lysed in SDS loading buffer and boiled for 10 minutes. Mouse hybridoma cells (obtained from the Developmental Studies Hybridoma Bank; antibody E7 for (:1-tubulin) were cultured in RPMI40 with 10% FBS. Prior to treatment with Ac-5SGlcNAc, hybridoma cells were cultured for 2 days in RPMI40 with 5% FBS, and during treatment in RPMI40 with no serum. Cells were collected, centrifuged (800 x g, 5 min) and the supernatant removed. Cells were washed with PBS, centrifuged, the pellet resuspended in SDS loading buffer and boiled. The supernatant after centrifugation, which contained the IgG antibody produced by the cells, was used for immunoprecipitation (see below for details).
Westernlectin blots: Samples were run on 10% SDS polyacrylamide gels and transferred onto nitrocellulose membranes (Biorad). Membranes were blocked for 1 h in PBS containing 0.1% Tween-20 (PBS-T) containing 1% (unless otherwise stated) bovine serum albumin (BSA), and probed with the appropriate primary antibody or lectin in 1% BSA in PBS-T overnight at 4° C. Blots were washed for 1 hr with PBS-T, and blocked for a further 30 min with 1% BSA in PBS-T at room temperature. They were then probed with the appropriate horseradish peroxidise (HRP)-conjugated secondary antibodyprobe in 1% BSA in PBS-T at room temperature for 1 h, followed by washing in PBS-T for 1 h. Blots were developed with SuperSignal West Pico Chemiluminescent Substrate (Pierce) and exposed to CL-XPosure film (Pierce). Densitometry was performed using ImageQuant 5.2 (Molecular Dynamics), and fits to the data were made using GRAFIT^41.
Antibodieslectins: O-GlcNAc levels were assessed primarily using CTD110.6 (Covance), but RL2 (Abcam) and HGAC85 (Abcam) were also tested. Actin was probed using JLA20 (Developmental Studies Hybridoma Bank). OGA levels were assessed using a polyclonal anti-OGA antibody which was a kind gift from Dr. Gerald Hart and OGT levels using H-300 (Santa Cruz Biotechnology). nup62 was probed using mAb 414 (Covance). Secondary antibodies employed (HRP-conjugated goat anti-mouse IgM, goat anti-mouse IgG, goat anti-chicken IgY and goat anti-rabbit IgG) were obtained from Santa Cruz Biotechnology. Biotinylated-ConA, PHA-L, SNA and MAA were purchased from EY Laboratories, and biotinylated-GNA from Vector Laboratories. HRP-conjugated streptavidin (Pierce) was used as a probe for the biotinylated lectins.
Analogues (9, 10, 17-41) were tested in COS-7 cells, dosed at a final concentration of 50 μM in DMSO for 24 h. Following treatment, cells were washed with PBS, harvested into SDS-PAGE loading buffer and analyzed by western blot using standard procedures; blots were probed with the anti-O-GlcNAc antibody (CTD 110.6).

OGA = target: T1, OGA (Homo sapiens, UniProt O60502); assay: OGA kinetics, Michaelis-Menten hydrolysis of pMP glycosides; type: biochemical
T1 construct: made in house
T1 sequence (O60502 1-916): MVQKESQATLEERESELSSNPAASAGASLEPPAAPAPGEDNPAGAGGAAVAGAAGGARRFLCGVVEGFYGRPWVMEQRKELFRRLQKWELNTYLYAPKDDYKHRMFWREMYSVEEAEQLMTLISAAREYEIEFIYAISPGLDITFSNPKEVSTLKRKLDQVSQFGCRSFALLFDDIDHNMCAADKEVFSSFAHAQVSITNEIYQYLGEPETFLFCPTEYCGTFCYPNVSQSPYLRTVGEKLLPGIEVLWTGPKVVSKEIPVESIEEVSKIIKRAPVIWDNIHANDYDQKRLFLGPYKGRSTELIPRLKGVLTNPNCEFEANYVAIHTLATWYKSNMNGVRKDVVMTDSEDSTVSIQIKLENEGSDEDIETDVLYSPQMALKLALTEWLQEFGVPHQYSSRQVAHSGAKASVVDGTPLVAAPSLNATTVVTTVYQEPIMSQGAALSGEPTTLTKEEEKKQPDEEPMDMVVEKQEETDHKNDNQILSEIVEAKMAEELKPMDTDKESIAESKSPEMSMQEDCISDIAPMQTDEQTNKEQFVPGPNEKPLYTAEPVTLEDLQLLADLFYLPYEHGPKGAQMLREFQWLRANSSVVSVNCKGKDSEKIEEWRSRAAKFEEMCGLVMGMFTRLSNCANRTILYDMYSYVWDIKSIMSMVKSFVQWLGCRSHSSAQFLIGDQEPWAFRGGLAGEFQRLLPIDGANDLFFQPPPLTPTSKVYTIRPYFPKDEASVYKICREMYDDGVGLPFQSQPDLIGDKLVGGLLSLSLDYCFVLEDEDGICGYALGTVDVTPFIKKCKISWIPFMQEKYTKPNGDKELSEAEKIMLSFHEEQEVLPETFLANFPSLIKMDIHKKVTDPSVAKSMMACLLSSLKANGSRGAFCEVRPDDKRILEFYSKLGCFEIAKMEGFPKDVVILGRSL
Procedure: OGA kinetics: Synthesis and characterization of para-methoxyphenyl-5SGlcNAc is described in Example II. Kinetics were performed at 37° C. in PBS, pH 7.4 in a total volume of […]. Substrate concentrations of 25 μM to 1.5 mM were used for pMP-GlcNAc and 25 to 800 μM for pMP-5SGlcNAc. OGA (which was over-expressed and purified as described in Ref. ^42) was used at a concentration of 1 μM for pMP-GlcNAc and 3.6 μM for pMP-5SGlcNAc. Rates were monitored at a wavelength of 296 nm over the course of 10-20 min. Data were fit to the Michaelis-Menten equation in GRAFIT^41 and the kcat and KM values determined.

## CC(=O)NC1C(O)SC(CO)C(O)C1O [Compound 10, N-acetyl-α-D-5-thio-glucosamine]
[1]; 24 hours
  effect on O-GlcNAc levels, dose response: decreased O-GlcNAc levels in a dose-dependent fashion
[1]; Chlorocebus sabaeus, 24 h, densitometry of western blot, read-out: EC50 for reduction of O-GlcNAc levels
  EC50: 700 µM

## COc1ccc(O[C@H]2S[C@H](CO)[C@@H](O)[C@H](O)[C@H]2NC(C)=O)cc1 [Compound 14, para-Methoxyphenyl 2-acetamido-2-deoxy-5-thio-α-D-glucopyranoside]
OGA; 37° C.
  kcat for OGA hydrolysis: 0.28 nmol s^−1 me
OGA; human OGA
  Vmax/E0KM for OGA hydrolysis: 8.1 μmol s^−1 mg^−1 M^−1
  fold less efficiently processed by OGA than pMP-GlcNAc: 5 fold

## CCC(=O)NC1C(OC(C)=O)SC(COC(C)=O)C(OC(C)=O)C1OC(C)=O [Compound 17, N-proprionyl-1,3,4,6-tetra-O-acetyl-α-D-5-thio-glucosamine]
[1]; 24 h
  effect on O-GlcNAc levels at single dose: decreased O-GlcNAc levels in cells

## CCCC(=O)NC1C(OC(C)=O)SC(COC(C)=O)C(OC(C)=O)C1OC(C)=O [Compound 19, N-(n-butyryl)-1,3,4,6-tetra-O-acetyl-a-D-5-thio-glucosamine]
[1]; 24 h
  effect on O-GlcNAc levels at single dose: decreased O-GlcNAc levels in cells

## CC(=O)OCC1SC(OC(C)=O)C(NC(=O)C(C)C)C(OC(C)=O)C1OC(C)=O [Compound 21, N-(i-butyryl)-1,3,4,6-tetra-O-acetyl-a-D-5-thio-glucosamine]
[1]; 24 h
  effect on O-GlcNAc levels at single dose: decreased O-GlcNAc levels in cells

## CCCCC(=O)NC1C(OC(C)=O)SC(COC(C)=O)C(OC(C)=O)C1OC(C)=O [Compound 23, N-(n-valeryl)-1,3,4,6-tetra-O-acetyl-α-D-5-thio-glucosamine]
[1]; 24 h
  effect on O-GlcNAc levels at single dose: decreased O-GlcNAc levels in cells

## CC(=O)OCC1SC(OC(C)=O)C(NC(=O)CC(C)C)C(OC(C)=O)C1OC(C)=O (stereo not drawn) [Compound 25]
[1]; 24 h
  effect on O-GlcNAc levels at single dose: decreased O-GlcNAc levels in cells

## CCCCCC(=O)NC1C(OC(C)=O)SC(COC(C)=O)C(OC(C)=O)C1OC(C)=O [Compound 27, N-hexonoyl-1,3,4,6-tetra-O-acetyl-a-D-5-thio-glucosamine]
[1]; 24 h
  effect on O-GlcNAc levels at single dose: decreased O-GlcNAc levels in cells
  extent of decrease of O-GlcNAc levels relative to parent compound 9: comparable extent to the parent compound

## CC(=O)OC[C@H]1S[C@H](OC(C)=O)[C@H](N)[C@@H](OC(C)=O)[C@@H]1OC(C)=O.O=S(=O)(O)O [Compound 31′, 1,3,4,6-tetra-O-acetyl-a-D-5-thio-glucosamine sulphuric acid salt]
[1]; 24 h
  effect on O-GlcNAc levels at single dose: decreased O-GlcNAc levels in cells

## CC(=O)OCC1SC(OC(C)=O)C(NC(=O)CC2CCCCC2)C(OC(C)=O)C1OC(C)=O [Compound 33, N-(2-Cyclohexylacetyl)-1,3,4,6-tetra-O-acetyl-a-D-5-thio-glucosamine]
[1]; 24 h
  effect on O-GlcNAc levels at single dose: decreased O-GlcNAc levels in cells

## O=C(CC1CCCCC1)NC1C(O)SC(CO)C(O)C1O [Compound 34, N-(2-cyclohexylacetyl)-a-D-5-thio-glucosamine]
[1]; 24 h
  effect on O-GlcNAc levels at single dose: decreased O-GlcNAc levels in cells

## CC(=O)OCC1SC(OC(C)=O)C(NC(=O)Cc2cccc3ccccc23)C(OC(C)=O)C1OC(C)=O [Compound 35, N-(1-naphthylacetyl)-1,3,4,6-tetra-O-acetyl-α-D-5-thio-glucosamine]
[1]; 24 h
  effect on O-GlcNAc levels at single dose: decreased O-GlcNAc levels in cells

## O=C(Cc1cccc2ccccc12)NC1C(O)SC(CO)C(O)C1O [Compound 36, N-(1-Naphthylacetyl)-α-D-5-thio-glucosamine]
[1]; 24 h
  effect on O-GlcNAc levels at single dose: decreased O-GlcNAc levels in cells

## CC[C@H](C)CC(=O)NC1C(OC(C)=O)SC(COC(C)=O)C(OC(C)=O)C1OC(C)=O (stereo partly drawn) [Compound 37, N-[(S)-methylvaleryl]-1,3,4,6-tetra-O-acetyl-α-D-5-thio-glucosamine]
[1]; 24 h
  effect on O-GlcNAc levels at single dose: decreased O-GlcNAc levels in cells
  extent of decrease of O-GlcNAc levels relative to parent compound 9: comparable extent to the parent compound

## CCC[C@H](C)C(=O)N[C@@H]1[C@@H](O)[C@H](O)[C@@H](CO)S[C@@H]1O [Compound 38, N-[(S)-2-methylvaleryl]-a-D-5-thio-glucosamine]
[1]; 24 h
  effect on O-GlcNAc levels at single dose: decreased O-GlcNAc levels in cells
  extent of decrease of O-GlcNAc levels relative to parent compound 9: comparable extent to the parent compound

## COc1ccc(O[C@@H]2O[C@H](CO)[C@@H](O)[C@H](O)[C@H]2NC(C)=O)cc1 [pMP-GlcNAc, para-methoxyphenyl-GlcNAc, reference compound]
OGA; 37° C.
  Km: 350 µM
  kcat for OGA hydrolysis: 14.3 nmol/s/mg
OGA; human OGA
  Vmax/E0KM for OGA hydrolysis: 40.7 μmol s^−1 mg^−1 M^−1
